Results reported in patent US6855687B2 (The Board of Regents The University of Texas System, priority 2000, dated 2005).
Read-outs that look alike come from different tables or passages of the source.

Target: thrombin receptor
Test: Specific binding of 125I thrombin to rat chondrocytes (Scatchard analysis)
Description: Primary cultures of rat articular chondrocytes were isolated and prepared for in vitro analysis using established methods (see Kuettner, K E., et.al., J. Cell Biology 93: 743-750, 1982). Briefly, cartilage pieces were dissected from the shoulder of rats and the pieces were digested with trypsin for one hour and with collagenase for three hours in tissue culture medium (DMEM) at 37 C. with stirring. The cells were plated in flasks at high density (50,000 cells/cm sq.) and were culture in DMEM containing antibiotics an ascorbic acid at 37° C. in an atmosphere of 5% CO2.

thrombin
Kd (Scatchard analysis, 125I thrombin, three separate experiments, read-out: affinity of very high affinity binding sites): 0.1 nM
Kd (summary statement of Example 1, read-out: apparent affinity (3000 sites)): ~0.1 nM
